Test results: patent US8404790B2, “Aqueous emulsion polymerization process for producing fluoropolymers” (3M Innovative Properties Company, priority 2005, dated 2013)

Experiment: Determination of bio-accumulation: urinary clearance pharmacokinetic study in rats
Settings: oral gavage
Description: The fluorinated surfactants were evaluated for urinary clearance using a pharmacokinetic study in rats. The goal was to measure the total amount of parent compound eliminated via urinary output and estimate the rate of elimination.
The study utilized male Sprague Dawley rats, 6 to 8 weeks of age, and approximately 200 to 250 g body weight at study onset. The test compounds of table 2 were administered at a dose of 73 micromoles per kg body weight in rats (N=3 animals per tested compound). All test compounds were prepared in sterile deionized water and given to rats via oral gavage. After test compounds administration, the rats were housed individually in metabolism cages for urine collection: 0 to 6 hours, 6 to 24 hours, 24 to 48 hours and 72 to 96 hours. Animals were observed throughout the study for clinical signs of toxicity. Gross necropsy was performed at the termination of each study (96 hours post-dose) with sera and liver samples being retained from each animal
The concentration of the parent compound or metabolites thereof were quantitatively measured via fluorine NMR on each urine sample for each animal at each time point based on internally added standards.

O=C(O)C(F)(F)OC(F)(F)OC(F)(F)OC(F)(F)OC(F)(F)F [Compound 1, perfluoro-3,5,7,9-tetraoxadecanoic acid (CF3—(OCF2)4—COOH)]
T½ (renal elimination half-life) (73 micromoles per kg body weight, urine, fluorine NMR, exponential least squares curve fitting): 15 h | % Recovery (96 h) (73 micromoles per kg, recovery of administered amount in urine after 96 h): 50%
